Measured values from a melting point compilation (Tetko et al.; mined from patent text by program, amines drawn as free bases though some values may be those of a salt).

Point of comparison: `O=C1CC(c2ccc(-c3ccc(OCc4ccc(Br)cc4)cc3)cc2)Cc2ccccc21` (stereo not given), melting point 191 °C. Against it:
- CSc1nc(-c2ccc(C#N)cc2)cn1-c1ccc(C#N)cc1 — higher, 209 to 219 °C
- CN(C(=O)c1ccc2nonc2c1)C1CCCOC1 (stereo not given) — lower, 134 to 135 °C
- CCOC(=O)NC(CCc1ccccc1)P(=O)(CC(=O)O)OCc1ccccc1 (stereo not given) — lower, 151 to 153 °C
- COC(=O)c1ccc(O)cc1[N+](=O)[O-] — lower, 161 to 166 °C
- Cc1cc(-c2sc(N3CCN(Cc4cccc(C(F)(F)F)c4)C3=O)nc2C)n[nH]1 — lower, 163 to 164 °C
- Fc1ccc([C@H]2CC[C@H](N3CCN(Cc4ccccc4)CC3)CC2)cc1 — lower, 106 °C
- NC(=O)c1c(Cl)c(-c2cccnc2)n2c1CN(S(=O)(=O)c1ccc(C(F)(F)F)cc1)CC2 — higher, 205 to 206 °C
- CCOC(=O)c1c(S(=O)C(C)C)c2cc(OCc3ccccc3)ccc2n1C (stereo not given) — lower, 142 to 145 °C
- CN(C)S(=O)(=O)c1cc2c(c(C(=O)Cl)c1)OCCO2 — lower, 160 to 162 °C
- N#Cc1nn(-c2c(Cl)cc(C(F)(F)F)cc2Cl)c(SCc2ccccc2)c1S(=O)(=O)C(F)(F)F — lower, 117 to 119 °C
- CCOC(=O)N1CCN(c2ccc(-n3cnn(C(CC)C(O)c4ccc(Cl)cc4)c3=O)cn2)CC1 (stereo not given) — higher, 196 °C
- Cc1cc(Cl)c(C(=O)c2ccc(Cl)cc2)c(Cl)c1 — lower, 112 to 114 °C
- CCN(CC)Cc1nc2cc(OC)c(OC)cc2c(-c2ccc(OC)c(OC)c2)c1C(=O)c1ccccc1 — lower, 150 to 151 °C
- CCOC(=O)c1cnc2c(I)cc(COC(C)=O)cc2c1O — lower, 119 to 123 °C
- CCCc1ccc(-n2nc(Cl)cc2-c2ccc(S(C)(=O)=O)cc2)cc1 — lower, 143 to 144 °C
- C=CCN1CCC2(c3cccc(O)c3)CCCC2C1 (stereo not given) — lower, 106 to 108 °C
- O=C1c2ccccc2C(=O)c2c(NCCN3CCCCC3)ccc(NCCN3CCCCC3)c21 — lower, 140 to 141 °C
- CCOC(=O)C1=C(C)N(C2CC2)C(C)=C(C(=O)OC)C1c1ccc(C(F)(F)F)cc1 (stereo not given) — lower, 110 °C
- CC(C)[C@H](C/C=C/C[C@H](C(=O)N1C(=O)OC[C@@H]1Cc1ccccc1)C(C)C)C(=O)N1C(=O)OC[C@@H]1Cc1ccccc1 — lower, 108 to 109 °C
- CC1(C)Oc2ccc(I)cc2[C@@H](N2Cc3ccccc3C2=O)[C@@H]1O (relative stereo) — higher, 224 to 228 °C
- CSCOc1ccc(-c2coc3ccc(-c4nnc(C)o4)cc23)cc1 — lower, 116 to 117 °C
- CCc1c2ccccc2nc2c1c(C)nn2-c1ccccn1 — lower, 112 to 114 °C
- NC(=S)Cn1c(=O)sc2ccccc21 — higher, 205 to 207 °C
- COc1ccc(Cn2c(=O)n(C3CCCCC3)c3cc(Cl)ccc32)cc1OC — lower, 59 °C
- COC(=O)c1ccc2oc(-c3ccccc3OC(C)C)cc(=O)c2c1 — lower, 154 to 155 °C
- CC(C)(C)C(NC(=O)c1ccc(Cl)cc1)NC(=NC#N)NCc1cccc(Cl)c1 (stereo not given) — lower, 178 to 180 °C
- CNC(=O)c1cccc(NC(=O)Cc2ccc([N+](=O)[O-])cc2)c1 — lower, 148 to 151 °C
- CC(C(=O)NCC(COC(=O)C(C)(C)C)Cc1ccc(C(C)(C)C)cc1)c1ccc(NS(C)(=O)=O)c(Cl)c1 (stereo not given) — lower, 61 to 63 °C
- c1ccc(CSc2ccccc2C2=NOCCO2)cc1 — lower, 73 to 77 °C
- O=C1C(=O)N(Cc2ccc(Nc3ncccn3)cc2)CCN1Cc1ccc(Nc2ncccn2)cc1 — higher, 226 to 228 °C
- CN1C(=O)CN=C(c2ccccn2)c2cc(C#C[Si](C)(C)C)ccc21 — higher, 194 to 195 °C
- CN1CCC23CC(=O)CCC2(O)C1Cc1ccccc13 (stereo not given) — lower, 143 to 144 °C
- Fc1cccc(F)c1-c1c(Cl)nc(Cl)n1-c1ccc(Cl)cc1 — lower, 123 to 125 °C
- CC(C)(C)OC(=O)Nc1ccc(-c2ccccc2)cc1[N+](=O)[O-] — lower, 119 to 121 °C
- O=C(O)C(O)N1C(=O)CCN1c1ccc(Cl)cc1 (stereo not given) — lower, 149 to 151 °C
- CC(=O)NCC1CN(c2ccc(N3CCN(C(=O)COC(C)=O)CC3)c(F)c2)C(=O)O1 (stereo not given) — higher, 199 to 201 °C
- CCCCCCCCCCCCCCCCCCOc1cc(OCCOc2ccc3ccccc3c2)cc(C(=O)O)c1 — lower, 93 to 94 °C
- CON=C(C)c1cccc(Nc2nc(OC)cc(OC)n2)c1C(=O)OC — lower, 82 to 84 °C
- CN(C)Nc1c(-c2c(F)cc(F)cc2F)c(Cl)nc2ncnn12 — lower, 165 to 168 °C
- O=c1c2cc(Br)ccc2c2cc3c(=O)c4cc(Br)ccc4c3cc12 — higher, > 300 °C
- O=[N+]([O-])c1cc(OCc2ccccc2)c2ccccc2c1CCO — lower, 82 to 90 °C
- Cc1nc(Cc2ccc(N)cc2)sc1C — lower, 91 to 92 °C
- C=CCSC1=C(C(=O)OCc2ccc([N+](=O)[O-])cc2)N2C(=O)[C@@H]([C@H](C)O)[C@H]2C1 — lower, 137 to 139 °C
- NC(=O)c1sc2nccc(N3CCCN(c4cccc([N+](=O)[O-])c4)CC3)c2c1N — lower, 180 to 185 °C
- CC1=CC2=C(N3CN(N4CCCC4)C=C3N=N2)N(c2cc(Cl)ccc2Cl)C1 — lower, 157 °C
- CCCN(CCC)C(=O)CNc1nc(-c2ccccc2)ncc1N — lower, 120 to 122 °C
- CCNC(=O)c1c(Cl)cccc1[Si](C)(C)C1CC2CCC1C2 (stereo not given) — lower, 124 to 125 °C
- Clc1ccc(-c2cc3ncnc(Nc4ccc5[nH]ccc5c4)c3s2)cc1 — not separable, 190 to 210 °C
- Cc1ccc(-c2nnc(-c3ccco3)s2)cc1 — lower, 111 to 113 °C
- O=C(CCC1CCCCC1)NC1N=C(c2ccccc2)c2ccccc2NC1=S (stereo not given) — lower, 113 to 119 °C
- O=C(Nc1ccccc1)Nc1ccc(Cc2ccc(NC3=NCCN3)cc2)cc1 — lower, 167 to 170 °C
- O=C1CCCCN1CCC(=O)N1CCC(C2c3ncc(Br)cc3CCc3cc(Cl)cc(Br)c32)CC1 (single isomer, unassigned; (+)) — lower, 138 to 139 °C
- CN(c1ccc(Cl)cc1)S(=O)(=O)c1cn(S(=O)(=O)N(C)C)cn1 — lower, 132 °C
- Cc1c(N)cccc1OC[C@@H]1CCCN1C(=O)OC(C)(C)C — lower, 110 °C
- Cc1ccc(C2c3c(C)c4c(c(C)c3OC2(C)C)CCN4)cc1 (stereo not given) — lower, 135 to 136 °C
- Cc1ccc2c(c1)N(CC(=O)c1ccccc1C)C(=O)C(NC(=O)Nc1cccc(C(=O)O)c1)CN2C(=O)CC(C)C (stereo not given) — higher, 202 to 205 °C
- CC(=O)NCCCc1cccc2c1CCO2 — lower, 66 to 67 °C
- CC1Cc2cc3c(cc2C(c2ccc([N+](=O)[O-])cc2)=NN1C#N)OCO3 (stereo not given) — lower, 172 to 176 °C
- COC(=O)CNc1cccc(CF)c1 — lower, 47 to 47.5 °C
- OC(CCN1CCC(c2ccccc2)CC1)c1ccc(-c2ccccc2)cc1 (stereo not given) — lower, 99 to 101 °C
- CC(C)(C)c1cc(CC2CO2)cc(C(C)(C)C)c1O (stereo not given) — lower, 86 to 87 °C
- Cc1cc(C(C)N(O)C(=O)NCCO)c(C)s1 (stereo not given) — lower, 122 to 124 °C
- Cc1cc(S(=O)(=O)N2c3cc(F)ccc3-n3cccc3C2C)ccc1O (stereo not given) — not separable, 191 to 193 °C
- Cn1nc(-c2ccccc2)c2c(=O)[nH]c(N)nc21 — higher, > 300 °C
- Cc1cc(C=O)cc(Oc2[nH]c(=O)[nH]c(=O)c2C(C)C)c1 — higher, 241 to 242 °C
- CN(CCOc1ccccc1)[C@H]1CC[C@H](c2ccc(OCc3ccccc3)cc2)CC1 — lower, 67 to 69 °C
- FC(F)C(F)(F)Sc1nc(-c2ccccc2)c(-c2ccccc2)n1C1CCCO1 (stereo not given) — lower, 145 to 146 °C
- OC1CCCc2nc3ccccc3c(NCCCC(c3ccccc3)c3ccccc3)c21 (stereo not given) — lower, 147 to 148 °C
- Nc1ccc(F)c(C(=O)NCC(=O)O)c1 — higher, 252 to 254 °C
- CCc1nn(-c2cc(NC(C)=O)ccc2Cl)c(=O)n1Cc1ccc(-c2ccccc2S(=O)(=O)NC(=O)OC(C)(C)C)cc1F — lower, 158 to 160 °C
- CNC(=O)n1nc(Oc2ccc([N+](=O)[O-])c(C(F)(F)F)c2)cc1C — lower, 139 to 141 °C
- CC(=O)OC1CSC(Oc2cccnc2-c2cccnc2)C(OC(C)=O)C1OC(C)=O (stereo not given) — lower, 70 °C
- C[C@H]1[C@H](N)CN1C(c1ccccc1)c1ccccc1 (relative stereo) — lower, 68 to 69 °C
- Cc1cccc2nc3sccn3c(=O)c12 — lower, 148 to 150 °C
- Brc1ccc(-c2nc(-c3cccc(Br)c3)n(-c3ccccc3)n2)cc1 — lower, 129 to 131 °C
- O=C(Cn1c(-c2ccc(Cl)cc2)nc2cccnc21)Nc1ccccc1Cl — higher, 232 to 236 °C
- CN(C1CCN(CCCC(F)(F)F)CC1)S(=O)(=O)c1ccc(Nc2nccc(Nc3ccc(F)cc3)n2)cc1 — lower, 166 to 167 °C
- Nc1nc(NCCOc2ccc(O)cc2)nc2nc(-c3ccco3)nn12 — higher, 266 to 268 °C
- N#CCCCC#Cc1cc(F)c2ncc(C(=O)NCc3ccc(Cl)cc3)c(O)c2c1 — higher, 208 to 210 °C
- O=C(Oc1ccccc1N1c2ccccc2S(=O)(=O)c2ccccc21)c1ccccc1 — higher, 228 to 232 °C
- CCOC(=O)CNS(=O)(=O)C(F)(F)F — lower, 73 to 75 °C
- COc1ccc(SSc2ccc(OC)cc2C(=O)NC(CC(C)C)C(=O)O)c(C(=O)NC(CC(C)C)C(=O)O)c1 (stereo not given) — lower, 168 to 169 °C
- C#CCOCc1nnc(Cl)c2ccccc12 — lower, 131 to 132 °C
- CCOC(=O)Cc1cc(Br)c(C(=O)c2ccc(C)cc2)n1C — lower, 85 to 87 °C
- COC(=O)CCC/C=C(/c1cc(C)c2onc(OC)c2c1)c1cc(C)c2oc(=O)n(C)c2c1 — lower, 54 to 55 °C
- COc1ccc(CC(C)NCC(O)c2cccc(Cl)c2)cc1 (stereo not given) — lower, 80 to 87 °C
- CCCCCCCCCCCCCCc1ccc(CC)c(O)c1 — lower, 59 to 60 °C
- CC(O)(C=Cc1ccc(S(=O)(=O)c2ccccc2)cc1)C(F)(F)F (stereo not given) — lower, 94 to 97 °C
- O=[N+]([O-])c1cccc(-c2csc(NS(=O)(=O)c3ccc(Cl)c(Cl)c3)n2)c1 — not separable, 189 to 191 °C
- CCN1CCc2cc(OC)c(OC)cc2C1C1CC(C(=O)N2CCN(c3ccccn3)CC2)CCC12c1cc(OC)c(OC)cc1CCN2CC (stereo not given) — lower, 115 to 117 °C
- CN1CC=C(c2c[nH]c3ccc([N+](=O)[O-])cc23)C(F)C1 (stereo not given) — lower, 94 to 96 °C
- COc1nc(C2CC2)nc(OC(C)C)c1C=O — lower, 46 to 47 °C
- O=C(Nc1ccc2cc(CN3CCCC3)cnc2c1F)c1ccc(-c2ccc(Cl)cc2)cc1F — higher, 208 °C
- CCc1cc(Br)c2c(c1)NC(=O)C2=O — higher, 219 to 220 °C
